Experimental data taken from patent US20260053811A1, “METHODS OF TREATING HYPERTENSION IN OBESE SUBJECTS” (Mineralys Therapeutics, Inc., priority 2022, published 2026).

System: hypertensive subjects
Experiment: 24-hour ambulatory blood pressure monitoring (ABPM), incl. nighttime dip
Type: in vivo, human
Experimental: Ambulatory blood pressure monitoring was accomplished with an ambulatory blood pressure monitoring device that consists of a blood pressure cuff worn on a subject's arm attached to a small recording device that is typically attached to the subject's belt or waistband.
The ABPM device is worn for 24 hours. Throughout that period, the device records the subject's blood pressure at regular intervals, during the subject's routine daily activities and while they are sleeping. The ABPM thus provides a complete record of the subject's blood pressure over a 24-hour period.
24-hour ABPM was measured in the clinic at baseline and Study Week 7. If, for any reason, the ABPM procedure was deemed a failure at the end of Study Week 7, it may have been repeated at Study Week 8 and therefore no imputation was employed regardless of use of rescue medications. Additionally, ABPM was also collected at the end of Study Week 4 in Part 2. If a repeat test was performed, it supersedes the original test results for that visit.
Specific derived variables based on ABPM measurements include mean 24-hour, mean Daytime, and mean Nighttime of SBP, DBP, and heart rate.
Change from baseline to Week 7 in 24-hour mean SBP (and DBP) based on ABPM will be analyzed using an ANCOVA with a term for treatment group and a baseline mean 24-hour value as a covariate.
The nighttime dip is defined as
100%×(mean daytime SBP−mean nighttime SBP)/mean daytime SBP
It is expressed as a percentage and is summarized by treatment group and visit using descriptive statistics. In addition, the number and percentage of subjects with nighttime dip in each of the dipper categories (Bloomfield & Park, 2015) is presented by treatment group and visit. The categories are: • (a) <10% • (b) 10-20% inclusive • (c) >20%
Secondary endpoints of this study were: • (a) Change in 24-hour ambulatory blood pressure monitoring (ABPM) parameters (systolic and diastolic) from baseline to the end of Study Week 7. • (b) Change in office-measured SBP from baseline to the end of Study Weeks 1, 2, 3, 4, 5, 6, and 7. • (c) Change in office-measured diastolic blood pressure (DBP) from baseline to the end of Study Weeks 1, 2, 3, 4, 5, 6, 7, and 8. • (d) Proportion of subjects who achieve office-measured BP of ≤130/80 mm Hg by the end of Study Week 8.

[1] = 50 mg QD, End of Treatment, Part 1, FAS post-hoc
[2] = 100 mg QD Part 2, End of Treatment, FAS post-hoc
[3] = 100 mg QD, End of Treatment, Part 1, FAS post-hoc

In the case of `CC(=O)N[C@H]1CC[C@H](NC(=O)CN2CCN(c3nncc(-c4ccc(C)cc4)n3)CC2)CC1` [Compound A HBr], the “LSM Δ with Placebo, 24-hr Mean MAP (ABPM, ANCOVA)” value [1] is reported as −3.48 mmHg, the “LSM Δ with Placebo, 24-hr SBP (ABPM, ANCOVA)” value [1] is reported as −3.85 mmHg and the “LSM Δ with Placebo, Daytime Mean DBP (ABPM, ANCOVA)” value [1] is reported as −4.18 mmHg. For the same compound, the “LSM Δ with Placebo, Daytime Mean SBP (ABPM, ANCOVA)” value [1] was −6.85 mmHg, the “LSM Δ with Placebo, Mean Central DBP (ABPM, ANCOVA)” value [1] was −2.58 mmHg and the “LSM Δ with Placebo, Mean Central Mean BP (ABPM, ANCOVA)” value [1] was −4.11 mmHg. For the same compound, the “LSM Δ with Placebo, Mean Central SBP (ABPM, ANCOVA)” value [1] was −5.46 mmHg, the “LSM Δ with Placebo, Nighttime Mean DBP (ABPM, ANCOVA)” value [1] was 0.15 mmHg and the “LSM Δ with Placebo, Nighttime Mean SBP (ABPM, ANCOVA)” value [1] was 2.37 mmHg. The “24-hr Mean DBP (ABPM), Mean (SD)” value (50 mg QD, EoT, Part 1, FAS) was 77.75 (9.33) mmHg, the “24-hr Mean MAP (ABPM), Mean (SD)” value (50 mg QD, EoT, Part 1, FAS) was 104.55 (11.74) mmHg and the “24-hr Mean SBP (ABPM), Mean (SD)” value (50 mg QD, EoT, Part 1, FAS) was 131.36 (15.58) mmHg. The “Daytime Mean DBP (ABPM), Mean (SD)” value (50 mg QD, EoT, Part 1, FAS) was 79.50 (9.08) mmHg, the “Daytime Mean SBP (ABPM), Mean (SD)” value (50 mg QD, EoT, Part 1, FAS) was 132.32 (14.36) mmHg and the “Nighttime Mean DBP (ABPM), Mean (SD)” value (50 mg QD, EoT, Part 1, FAS) was 74.25 (13.08) mmHg. The “Nighttime Mean SBP (ABPM), Mean (SD)” value (50 mg QD, EoT, Part 1, FAS) was 129.54 (21.68) mmHg, the “Subjects with nighttime dip 10-20% in 24-hour systolic ABPM” value (50 mg QD, EoT, Part 1, FAS) was 6 (21.4) n (%) and the “Subjects with nighttime dip <10% in 24-hour systolic ABPM” value (50 mg QD, EoT, Part 1, FAS) was 22 (78.6) n (%). The “Subjects with nighttime dip >20% in 24-hour systolic ABPM” value (50 mg QD, EoT, Part 1, FAS) was 0 n (%), the “24-hr Mean DBP (ABPM) CFB to EoT, Mean (SD)” value (50 mg QD, Part 1, FAS) was −3.00 (8.52) mmHg and the “24-hr Mean MAP (ABPM) CFB to EoT, Mean (SD)” value (50 mg QD, Part 1, FAS) was −2.39 (11.80) mmHg. The “24-hr Mean SBP (ABPM) CFB to EoT, Mean (SD)” value (50 mg QD, Part 1, FAS) was −1.79 (15.82) mmHg, the “Daytime Mean DBP (ABPM) CFB to EoT, Mean (SD)” value (50 mg QD, Part 1, FAS) was −4.11 (6.81) mmHg and the “Daytime Mean SBP (ABPM) CFB to EoT, Mean (SD)” value (50 mg QD, Part 1, FAS) was −4.54 (13.59) mmHg. For the same compound, the “Nighttime Mean DBP (ABPM) CFB to EoT, Mean (SD)” value (50 mg QD, Part 1, FAS) was 0.00 (12.34) mmHg, the “Nighttime Mean SBP (ABPM) CFB to EoT, Mean (SD)” value (50 mg QD, Part 1, FAS) was 2.44 (22.25) mmHg and the “LSM Δ with 100 mg QD Part 1, 24-hr Mean AP (ABPM, ANCOVA)” value [2] was 3.33 mmHg. For the same compound, the “LSM Δ with 100 mg QD Part 1, 24-hr Mean DBP (ABPM, ANCOVA)” value [2] was 4.26 mmHg, the “LSM Δ with 100 mg QD Part 1, 24-hr Mean SBP (ABPM, ANCOVA)” value [2] was 4.13 mmHg and the “LSM Δ with 100 mg QD Part 1, Daytime Mean DBP (ABPM, ANCOVA)” value [2] was 3.92 mmHg. The “LSM Δ with 100 mg QD Part 1, Daytime Mean SBP (ABPM, ANCOVA)” value [2] was 1.64 mmHg, the “LSM Δ with 100 mg QD Part 1, Mean Central DBP (ABPM, ANCOVA)” value [2] was 4.53 mmHg and the “LSM Δ with 100 mg QD Part 1, Mean Central Mean BP (ABPM, ANCOVA)” value [2] was 3.98 mmHg. The “LSM Δ with 100 mg QD Part 1, Mean Central SBP (ABPM, ANCOVA)” value [2] was 4.68 mmHg, the “LSM Δ with 100 mg QD Part 1, Nighttime Mean DBP (ABPM, ANCOVA)” value [2] was 5.04 mmHg and the “LSM Δ with 100 mg QD Part 1, Nighttime Mean SBP (ABPM, ANCOVA)” value [2] was 8.91 mmHg. For the same compound, the “LSM Δ with Placebo, 24-hr DBP (ABPM, ANCOVA)” value [3] was −5.23 mmHg, the “LSM Δ with Placebo, 24-hr Mean MAP (ABPM, ANCOVA)” value [3] was −5.45 mmHg and the “LSM Δ with Placebo, 24-hr SBP (ABPM, ANCOVA)” value [3] was −5.33 mmHg. For the same compound, the “LSM Δ with Placebo, Daytime Mean DBP (ABPM, ANCOVA)” value [3] was −4.98 mmHg, the “LSM Δ with Placebo, Daytime Mean SBP (ABPM, ANCOVA)” value [3] was −4.12 mmHg and the “LSM Δ with Placebo, Mean Central DBP (ABPM, ANCOVA)” value [3] was −7.01 mmHg. The “LSM Δ with Placebo, Mean Central Mean BP (ABPM, ANCOVA)” value [3] was −7.77 mmHg, the “LSM Δ with Placebo, Mean Central SBP (ABPM, ANCOVA)” value [3] was −7.79 mmHg and the “LSM Δ with Placebo, Nighttime Mean DBP (ABPM, ANCOVA)” value [3] was −5.68 mmHg. For the same compound, the “LSM Δ with Placebo, Nighttime Mean SBP (ABPM, ANCOVA)” value [3] was −7.36 mmHg, the “24-hr Mean DBP (ABPM), Mean (SD)” value (100 mg QD, EoT, Part 1, FAS) was 75.92 (8.42) mmHg and the “24-hr Mean MAP (ABPM), Mean (SD)” value (100 mg QD, EoT, Part 1, FAS) was 105.48 (8.26) mmHg. For the same compound, the “24-hr Mean SBP (ABPM), Mean (SD)” value (100 mg QD, EoT, Part 1, FAS) was 135.04 (11.25) mmHg, the “Daytime Mean DBP (ABPM), Mean (SD)” value (100 mg QD, EoT, Part 1, FAS) was 78.79 (9.44) mmHg and the “Daytime Mean SBP (ABPM), Mean (SD)” value (100 mg QD, EoT, Part 1, FAS) was 139.42 (11.65) mmHg. For the same compound, the “Nighttime Mean DBP (ABPM), Mean (SD)” value (100 mg QD, EoT, Part 1, FAS) was 69.00 (9.04) mmHg, the “Nighttime Mean SBP (ABPM), Mean (SD)” value (100 mg QD, EoT, Part 1, FAS) was 124.50 (14.93) mmHg and the “Subjects with nighttime dip 10-20% in 24-hour systolic ABPM” value (100 mg QD, EoT, Part 1, FAS) was 11 (45.8) n (%). For the same compound, the “Subjects with nighttime dip <10% in 24-hour systolic ABPM” value (100 mg QD, EoT, Part 1, FAS) was 11 (45.8) n (%), the “Subjects with nighttime dip >20% in 24-hour systolic ABPM” value (100 mg QD, EoT, Part 1, FAS) was 2 (8.3) n (%) and the “24-hr Mean DBP (ABPM), Mean” value (100 mg QD, EoT, Part 2, FAS) was 77.07 mmHg. The “24-hr Mean MAP (ABPM), Mean” value (100 mg QD, EoT, Part 2, FAS) was 104.83 mmHg, the “24-hr Mean SBP (ABPM), Mean” value (100 mg QD, EoT, Part 2, FAS) was 132.59 mmHg and the “Daytime Mean DBP (ABPM), Mean” value (100 mg QD, EoT, Part 2, FAS) was 79.41 mmHg. For the same compound, the “Daytime Mean SBP (ABPM), Mean” value (100 mg QD, EoT, Part 2, FAS) was 135.22 mmHg, the “Nighttime Mean DBP (ABPM), Mean” value (100 mg QD, EoT, Part 2, FAS) was 71.85 mmHg and the “Nighttime Mean SBP (ABPM), Mean” value (100 mg QD, EoT, Part 2, FAS) was 126.04 mmHg. For the same compound, the “24-hr Mean DBP (ABPM) CFB to EoT, Mean (SD)” value (100 mg QD, Part 1, FAS) was −5.92 (8.44) mmHg, the “24-hr Mean MAP (ABPM) CFB to EoT, Mean (SD)” value (100 mg QD, Part 1, FAS) was −7.40 (10.04) mmHg and the “24-hr Mean SBP (ABPM) CFB to EoT, Mean (SD)” value (100 mg QD, Part 1, FAS) was −8.88 (11.90) mmHg. The “Daytime Mean DBP (ABPM) CFB to EoT, Mean (SD)” value (100 mg QD, Part 1, FAS) was −4.96 (8.74) mmHg, the “Daytime Mean SBP (ABPM) CFB to EoT, Mean (SD)” value (100 mg QD, Part 1, FAS) was −7.08 (12.60) mmHg and the “Nighttime Mean DBP (ABPM) CFB to EoT, Mean (SD)” value (100 mg QD, Part 1, FAS) was −6.57 (9.97) mmHg. The “Nighttime Mean SBP (ABPM) CFB to EoT, Mean (SD)” value (100 mg QD, Part 1, FAS) was −11.48 (13.87) mmHg, the “24-hr Mean DBP (ABPM) CFB to EoT, Mean” value (100 mg QD, Part 2, FAS) was 1.33 mmHg and the “24-hr Mean MAP (ABPM) CFB to EoT, Mean” value (100 mg QD, Part 2, FAS) was 1.81 mmHg. For the same compound, the “24-hr Mean SBP (ABPM) CFB to EoT, Mean” value (100 mg QD, Part 2, FAS) was 2.30 mmHg, the “Daytime Mean DBP (ABPM) CFB to EoT, Mean” value (100 mg QD, Part 2, FAS) was 1.67 mmHg and the “Daytime Mean SBP (ABPM) CFB to EoT, Mean” value (100 mg QD, Part 2, FAS) was 2.41 mmHg. For the same compound, the “Nighttime Mean DBP (ABPM) CFB to EoT, Mean” value (100 mg QD, Part 2, FAS) was 1.04 mmHg, the “Nighttime Mean SBP (ABPM) CFB to EoT, Mean” value (100 mg QD, Part 2, FAS) was 1.52 mmHg and the “Change in BP, ABPM (night) BPsys, Mean (sem)” value (100 mg QD, Week 8, FAS) was −11.5 (2.5) mmHg. The “Proportion of Subjects with Nighttime Dip in 24-hour Systolic Ambulatory Blood Pressure 10-20%” value (Part 2, 100 mg QD, EoT) was “(33.3) %”, the “Proportion of Subjects with Nighttime Dip in 24-hour Systolic Ambulatory Blood Pressure <10%” value (Part 2, 100 mg QD, EoT) was “(66.7) %” and the “Proportion of Subjects with Nighttime Dip in 24-hour Systolic Ambulatory Blood Pressure 10-20%” value (Part 2, 100 mg QD, Week 4) was “(24.0) %”. The “Proportion of Subjects with Nighttime Dip in 24-hour Systolic Ambulatory Blood Pressure <10%” value (Part 2, 100 mg QD, Week 4) was “(72.0) %” and the “Proportion of Subjects with Nighttime Dip in 24-hour Systolic Ambulatory Blood Pressure >20%” value (Part 2, 100 mg QD, Week 4) was “(4.0) %”.
